Literature values as cited in PMC4875922 (Drugs in R&D, 2016).

Tests used:
[1] = not given; remark: listed apart in the source

linearity of pharmacokinetics: non-linear pharmacokinetics
Compound: O=C(Nc1cccnn1)N1CCC(=Cc2cccc(Oc3ccc(C(F)(F)F)cn3)c2)CC1 [PF-04457845]
tolerability (at doses that cause maximal inhibition of FAAH and elevation of plasma endocannabinoids): well tolerated
effect in phase II study in osteoarthritic pain [1]: without effect
